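Dose response: 5 concentrations. Exposure: 48 h. Format: 96-well plates. Endpoint: linear interpolation; highest concentration if not reached. GI50 = concentration required for 50% inhibition of growth. TGI: total growth inhibition.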
test system: MDA-MB-435; assay: DTP human tumour cell line panel, 48 h

| SMILES | TGI | GI50 |
| --- | --- | --- |
| CC1=C(N2CC2)C(=O)c2ccccc2C1=O | 2.84 µM | – |
| CC(N1CCOCC1)C(O)(c1ccccc1)c1ccccn1 (centres undefined) | > 100 µM | – |
| CCN(CC)Cc1cc(Nc2c3ccccc3nc3cc(Cl)ccc23)ccc1O | 3.34 µM | 1.65 µM |
| O=C(O)CCc1nc(-c2ccccc2-n2cccc2)no1 | 46.3 µM | – |
| Cc1cc(Nc2nc(-c3ccncc3)nc3ccccc23)n[nH]1 | > 100 µM | 12.1 µM |
| COc1cc2c(cc1OCCCOc1ccc(-c3nc4ccc(N5CCN(C)CC5)cc4[nH]3)cc1)N=C[C@@H]1CCCN1C2=O | < 0.01 µM | < 0.01 µM |
| COc1cccc2c1cc1c3c(cc4c(c32)OCO4)C(=O)N1 | > 100 µM | 10.9 µM |
| CC(C(N)=O)N(C)C(=O)c1cnc2ccccc2c1 (centres undefined) | > 100 µM | – |
| CCCOC(=O)C1C2CCC(O2)C1C(=O)O (centres undefined) | > 100 µM | – |
| CCCCCCCCCCSC(=N)N | 4.01 µM | 1.77 µM |
| CCOC(=O)c1c(C)n(Cc2ccccc2)c2c1cc1oc(=O)c(=O)n3cnc2c13 | 32.9 µM | 10.7 µM |
| O=C(/C=C/c1ccccc1)CCC1C(=O)NC(=S)NC1=O | > 100 µM | – |
| C/C(=N/O)c1ccc(Nc2cc(-n3ccnc3)c3ccccc3n2)cc1 | > 100 µM | 36.4 µM |

test system: UO-31 renal; assay: DTP human tumour cell line panel, 48 h

| SMILES | TGI | GI50 |
| --- | --- | --- |
| CC1=C(N2CC2)C(=O)c2ccccc2C1=O | 10.6 µM | – |
| CC(N1CCOCC1)C(O)(c1ccccc1)c1ccccn1 (centres undefined) | > 100 µM | – |
| O=S1(=O)c2ccccc2N=C(c2ccccc2Cl)CC1c1ccc(F)cc1 (centres undefined) | 28.6 µM | – |
| CCN(CC)Cc1cc(Nc2c3ccccc3nc3cc(Cl)ccc23)ccc1O | 2.64 µM | 1.34 µM |
| CC1=CC(=O)NP(=O)(C23CC4CC(CC(C4)C2)C3)N1 (centres undefined) | > 100 µM | – |
| O=c1[nH]cc(C(F)(C(F)(F)F)C(F)(F)F)c(=O)[nH]1 | > 100 µM | – |
| COc1ccc2c(c1)c1c3n2CCNN=C3CCC1 | > 100 µM | – |
| CC(=O)[C-](C(C)=O)c1ccccc1.CC(=O)[C-](C(C)=O)c1ccccc1.CC(=O)[C-](C(C)=O)c1ccccc1.[Cl-].[Zr+4] | > 100 µM | > 100 µM |
| CC(C)N1C(C)[C@@H](c2ccccc2)O[P@]1(=O)CC1=CCCCC1 (some centres undefined) | > 100 µM | – |
| O=C(O)CCc1nc(-c2ccccc2-n2cccc2)no1 | > 100 µM | – |
| Cc1cc(Nc2nc(-c3ccncc3)nc3ccccc23)n[nH]1 | > 100 µM | 1.23 µM |
| COC(=O)C(=O)C(C(=O)C(=O)Nc1cc(Cl)c(Cl)cc1Cl)c1nc2ccc([N+](=O)[O-])cc2[nH]c1=O (centres undefined) | > 100 µM | – |
| COc1ccc(NC(=O)C2C(=O)N(c3ccc(OC)cc3)C(=O)/C2=N\NC(N)=O)cc1 (centres undefined) | 80.8 µM | – |
| C/C(=N\NS(=O)(=O)c1ccc([N+](=O)[O-])cc1)c1ccc[n+]([O-])n1 | 6.74 µM | – |
| S=c1c2ccccc2c(=S)n2n1CC=CC2 | > 100 µM | – |
| CC(C)(C)Sc1nnc(SC(C)(C)C)c2c(=O)[nH]nc(SC(C)(C)C)c12 | 19.7 µM | – |
| CCCCNC1=C(C(=O)OCC)/C(=N/NC(=O)c2ccccc2O)CO1 | 28.1 µM | – |
| N#CC(C(=O)CCCC(=O)Nc1ccc(Cl)cc1Cl)c1ccc(Cl)cc1 (centres undefined) | > 100 µM | – |
| O=CCCCC(Sc1ccccc1)Sc1ccccc1 | 66.8 µM | – |
| COc1ccc(C)cc1C1CCC(=O)O1 (centres undefined) | > 100 µM | – |
| Cc1ccc2nc(NC(=O)C(=O)CC(=O)c3cccc4ccccc34)sc2c1 | > 100 µM | – |

| SMILES | TGI | GI50 |
| --- | --- | --- |
| Nc1c(C(=O)Nc2cccc3ccccc23)sc2nc3c(cc12)C(=O)CCC3 | > 95.6 µM | 0.636 µM |
| O=C1CCC(=O)c2sccc2N1 | > 100 µM | – |
| COc1cccc2c1cc1c3c(cc4c(c32)OCO4)C(=O)N1 | 28.9 µM | 3.47 µM |
| CC(C(N)=O)N(C)C(=O)c1cnc2ccccc2c1 (centres undefined) | > 100 µM | – |
| CCCCCCCCCCCCCCCCCC(=O)NCC(COP(=O)(O)O)OCC (centres undefined) | 83.2 µM | – |
| CCCOC(=O)C1C2CCC(O2)C1C(=O)O (centres undefined) | > 100 µM | – |
| COc1ccc2c(c1)/C(=N/OC(C)=O)c1c-2cnc2ccccc12 | 46.6 µM | 22.2 µM |
| CCCCCCCCCCSC(=N)N | 12.4 µM | 2.61 µM |
| Cn1nc(-c2ccccc2)c(C(=O)/C=C/c2ccc(Cl)cc2)c(N2CCCC2)c1=O | 21.5 µM | – |
| CCOC(=O)c1c(C)n(Cc2ccccc2)c2c1cc1oc(=O)c(=O)n3cnc2c13 | > 50 µM | 25.6 µM |
| O=C1C=Cc2ncccc2C1=O | > 57.7 µM | – |
| C/C(CC(=O)Nc1cccc([N+](=O)[O-])c1)=N\NC(=O)CC#N | > 100 µM | – |
| [CH3][Sn]1([CH3])[O]CC(COc2cc(Cl)c(Cl)cc2Cl)[O]1 (centres undefined) | > 100 µM | 71 µM |
| O=C(/C=C/c1ccccc1)CCC1C(=O)NC(=S)NC1=O | > 100 µM | – |
| CCc1cc(Cc2ccc(C)c(NC(=O)C(=O)C3C(=O)NC(=O)NC3=O)c2CC)cc(C)c1NC(=O)C(=O)C1C(=O)NC(=O)NC1=O | > 100 µM | – |
| CC(=O)OC(=O)O/C=C\CCl | > 100 µM | – |
| CC(=O)c1c2c(cc3c1CC1(C3)Cc3cc4c(c(C(=O)O)c3C1)CCC4)CCC2 (centres undefined) | 72.7 µM | – |
| C/C(=N/O)c1ccc(Nc2cc(-n3ccnc3)c3ccccc3n2)cc1 | > 100 µM | 15.3 µM |
| Cc1ccc(/C=N/NS(=O)(=O)c2ccccc2)c(C)c1 | > 100 µM | – |
| C#CCOCn1cnc2ncnc(N)c21 | > 100 µM | – |
| Cc1noc(/N=C2\C=C(Nc3onc(C)c3C)C(=O)c3ccccc32)c1C | > 100 µM | – |

test system: SK-MEL-2 melanoma; assay: DTP human tumour cell line panel, 48 h

| SMILES | TGI | GI50 |
| --- | --- | --- |
| CC1=C(N2CC2)C(=O)c2ccccc2C1=O | 4.06 µM | – |
| CC(N1CCOCC1)C(O)(c1ccccc1)c1ccccn1 (centres undefined) | > 100 µM | – |
| O=S1(=O)c2ccccc2N=C(c2ccccc2Cl)CC1c1ccc(F)cc1 (centres undefined) | 35.9 µM | – |
| CCN(CC)Cc1cc(Nc2c3ccccc3nc3cc(Cl)ccc23)ccc1O | 3.36 µM | 1.75 µM |
| CC1=CC(=O)NP(=O)(C23CC4CC(CC(C4)C2)C3)N1 (centres undefined) | > 100 µM | – |
| O=c1[nH]cc(C(F)(C(F)(F)F)C(F)(F)F)c(=O)[nH]1 | > 100 µM | – |
| COc1ccc2c(c1)c1c3n2CCNN=C3CCC1 | > 100 µM | – |
| CC(=O)[C-](C(C)=O)c1ccccc1.CC(=O)[C-](C(C)=O)c1ccccc1.CC(=O)[C-](C(C)=O)c1ccccc1.[Cl-].[Zr+4] | > 100 µM | > 100 µM |
| CC(C)N1C(C)[C@@H](c2ccccc2)O[P@]1(=O)CC1=CCCCC1 (some centres undefined) | > 100 µM | – |
| O=C(O)CCc1nc(-c2ccccc2-n2cccc2)no1 | > 100 µM | – |
| Cc1cc(Nc2nc(-c3ccncc3)nc3ccccc23)n[nH]1 | > 100 µM | 34.3 µM |
| COC(=O)C(=O)C(C(=O)C(=O)Nc1cc(Cl)c(Cl)cc1Cl)c1nc2ccc([N+](=O)[O-])cc2[nH]c1=O (centres undefined) | > 100 µM | – |
| COc1ccc(NC(=O)C2C(=O)N(c3ccc(OC)cc3)C(=O)/C2=N\NC(N)=O)cc1 (centres undefined) | > 100 µM | – |
| C/C(=N\NS(=O)(=O)c1ccc([N+](=O)[O-])cc1)c1ccc[n+]([O-])n1 | 3.84 µM | – |
| S=c1c2ccccc2c(=S)n2n1CC=CC2 | > 100 µM | – |
| COc1cc2c(cc1OCCCOc1ccc(-c3nc4ccc(N5CCN(C)CC5)cc4[nH]3)cc1)N=C[C@@H]1CCCN1C2=O | < 0.01 µM | < 0.01 µM |
| CCCCNC1=C(C(=O)OCC)/C(=N/NC(=O)c2ccccc2O)CO1 | > 100 µM | – |
| N#CC(C(=O)CCCC(=O)Nc1ccc(Cl)cc1Cl)c1ccc(Cl)cc1 (centres undefined) | > 100 µM | – |
| O=CCCCC(Sc1ccccc1)Sc1ccccc1 | 42.7 µM | – |
| COc1ccc(C)cc1C1CCC(=O)O1 (centres undefined) | > 100 µM | – |
| Cc1ccc2nc(NC(=O)C(=O)CC(=O)c3cccc4ccccc34)sc2c1 | > 100 µM | – |
| Nc1c(C(=O)Nc2cccc3ccccc23)sc2nc3c(cc12)C(=O)CCC3 | 19.1 µM | 0.0915 µM |
| O=C1CCC(=O)c2sccc2N1 | > 100 µM | – |
| O=C(c1ccc2ccccc2c1)c1c(C(F)(F)F)n([O-])c2ccc(F)cc2[n+]1=O | 2.82 µM | 1.2 µM |
| COc1cccc2c1cc1c3c(cc4c(c32)OCO4)C(=O)N1 | 44.2 µM | 16.5 µM |

From PubChem BioAssay (NCI)
